In patent US8318635B2, “Phytotoxicity controlling agent for upland farming and phytotoxicity controlling method using the same” (priority 2006, dated 2012):
Counter-ions that a name gives are not always drawn. Like-named read-outs stand apart in the source and are kept apart here.

Assays:
[1] = system: barley (Minori Rokujo); assay: Visual growth study, phytotoxicity index, chemicals scattered 14 days after sowing; details: in vivo
Procedure: (§1) These containers were each kept standing on a water vat filled with a water pool from which water was supplied through the opening in the bottom. […] After 8 days from the chemical treatment and after 14 days from the chemical treatment, visual growth studies were conducted for sweet corn, sorghum and adzuki bean and for wheat, barley, dry-paddy rice, soybean, rapeseed and beet, respectively and the results are shown in Table 2 and Table 3.

[2] = system: wheat (Brigadier); assay: as above; type: in vivo
Procedure: as §1

[3] = system: soybean (Fukuyutaka); assay: as above; type: in vivo; details: true leaf extraction stage, treated 14 days after sowing, 14 days after treatment, 0-100 scale, 4-(tert-butyl)benzoic acid 1000 g ai/ha in Examples, 0 in Comparative Examples, herbicide dose per label
Procedure: as §1

[4] = system: dry-paddy rice (Labell); assay: Visual growth study, phytotoxicity index, chemicals scattered on the next day after sowing; type: in vivo; details: treated next day after sowing, 26 days after treatment, 0 = no growth inhibition, 100 = full dying, 4-(tert-butyl)benzoic acid 1000 g ai/ha in Examples, 0 in Comparative Examples, herbicide dose per label
Procedure: (§2) A wettable powder containing 10% of 4-(tert-butyl)benzoic acid was prepared by blending pulverization of 10 parts of 4-(tert-butyl)benzoic acid, 2 parts of a sodium salt of naphthalenesulfonic acid-formalin condensation product, 2 parts of a polyoxyethylene alkyl ether, 30 parts of diatomaceous earth and 56 parts of clay by using a high-speed air-jet pulverizer.
(§3) These containers were each kept standing in a water vat and water supply for pooling was introduced through the hole opening at the bottom of the water vat.
(§4) For comparison, on the other hand, evaluation was made by conducting growth studies by growing sweet corn, wheat, dry-paddy rice, sorghum, soybean, adzuki bean and rapeseed under the same conditions as in the Examples excepting for the omission of scattering of 4-(tert-butyl)benzoic acid.

[5] = system: soybean (Fukuyutaka); assay: as above
Procedure: as §2, §3, §4

[6] = system: sweet corn (Delicious 100); assay: as above; details: treated next day after sowing, 26 days after treatment, 0 = no growth inhibition, 100 = full dying, 4-(tert-butyl)benzoic acid 1000 g ai/ha in Examples, 0 in Comparative Examples, herbicide dose per label
Procedure: as §2, §3, §4

[7] = system: rapeseed; assay: Visual growth study, phytotoxicity index, chemicals scattered 14 days after sowing; type: in vivo
Procedure: as §1

[8] = system: beet (VIGIL); assay: as above; type: in vivo; details: true leaf extraction stage, treated 14 days after sowing, 14 days after treatment, 0-100 scale, 4-(tert-butyl)benzoic acid 1000 g ai/ha in Examples, 0 in Comparative Examples, herbicide dose per label
Procedure: as §1

[9] = system: sweet corn (Delicious 100); assay: as above; type: in vivo; details: 1.5 leaves stage, treated 14 days after sowing, 8 days after treatment, 0-100 scale, 4-(tert-butyl)benzoic acid 1000 g ai/ha in Examples, 0 in Comparative Examples, herbicide dose per label
Procedure: as §1

[10] = system: adzuki bean (Dainagon); assay: as above; type: in vivo
Procedure: as §1

[11] = system: wheat (Brigadier); details: in vivo
Procedure: as §2, §3, §4

[12] = system: sorghum (Funk's Hybrid); assay: Visual growth study, phytotoxicity index, chemicals scattered on the next day after sowing; details: treated next day after sowing, 11 days after treatment, 0 = no growth inhibition, 100 = full dying, 4-(tert-butyl)benzoic acid 1000 g ai/ha in Examples, 0 in Comparative Examples, herbicide dose per label
Procedure: as §2, §3, §4

[13] = system: dry-paddy rice (Labell); assay: Visual growth study, phytotoxicity index, chemicals scattered 14 days after sowing; type: in vivo; details: 0.8 leaves stage, treated 14 days after sowing, 14 days after treatment, 0-100 scale, 4-(tert-butyl)benzoic acid 1000 g ai/ha in Examples, 0 in Comparative Examples, herbicide dose per label
Procedure: as §1

[14] = wheat, 2 leaves stage, treated 14 days after sowing, 14 days after treatment, 0-100 scale, 4-(tert-butyl)benzoic acid 1000 g ai/ha in Examples, 0 in Comparative Examples, herbicide dose per label

Question: `Cn1nc(C(F)(F)F)c(CS(=O)(=O)C2=NOC(C)(C)C2)c1OC(F)F` [compound 23] was tested. Which Phytotoxicity index [1] did it give?
Answer: 18

Question: For `O=C(Nc1ccc(F)cc1F)c1cccnc1Oc1cccc(C(F)(F)F)c1` [compound 22, Diflufenican], which Phytotoxicity index [2, 14] is on record?
Answer: 15

Question: `COC[C@H](C)N(C(=O)CCl)c1c(C)csc1C` [compound 25, Dimethenamide-P] was tested. Which Phytotoxicity index [3] did it give?
Answer: 15

Question: For `CS(=O)(=O)c1ccc(C(=O)C2C(=O)CCCC2=O)c([N+](=O)[O-])c1` [compound 21, Mesotrione], which Phytotoxicity index [2, 14] is on record?
Answer: 40

Question: Which Phytotoxicity index [4] does the source give for `CCNc1nc(Cl)nc(NC(C)C)n1` [compound 7, Atrazine] here?
Answer: 35

Question: How did the Phytotoxicity index [2, 14] turn out when `COc1cc(OC)nc(Oc2cccc(Oc3nc(OC)cc(OC)n3)c2C(=O)O)n1` [compound 19, Bispyribac-sodium] was run?
Answer: 35

Question: `COC[C@H](C)N(C(=O)CCl)c1c(C)csc1C` [compound 10, Dimethenamide-P] was tested. Which Phytotoxicity index ([5]; soybean, treated next day after sowing, 26 days after treatment, 0 = no growth inhibition, 100 = full dying, 4-(tert-butyl)benzoic acid 1000 g ai/ha in Examples, 0 in Comparative Examples, herbicide dose per label) did it give?
Answer: 20

Question: How did the Phytotoxicity index [6] turn out when `CCNc1nc(Cl)nc(NC(C)C)n1` [compound 3, Atrazine] was run?
Answer: 15

Question: Which Phytotoxicity index ([2]; in vivo) does the source give for `Cn1nc(C(F)(F)F)c(CS(=O)(=O)C2=NOC(C)(C)C2)c1OC(F)F` [compound 20] here?
Answer: 20

Question: For `COC[C@H](C)N(C(=O)CCl)c1c(C)csc1C` [compound 29, Dimethenamide-P], which Phytotoxicity index ([7]; rapeseed, two paired leaves extraction stage, treated 14 days after sowing, 14 days after treatment, 0-100 scale, 4-(tert-butyl)benzoic acid 1000 g ai/ha in Examples, 0 in Comparative Examples, herbicide dose per label) is on record?
Answer: 10

Question: For `COC[C@H](C)N(C(=O)CCl)c1c(C)csc1C` [compound 31, Dimethenamide-P], which Phytotoxicity index [8] is on record?
Answer: 35

Question: With `CS(=O)(=O)c1ccc(C(=O)C2C(=O)CCCC2=O)c([N+](=O)[O-])c1` [compound 16, Mesotrione] as the molecule, how does the Phytotoxicity index [9] read?
Answer: 13

Question: `O=C(Nc1ccc(F)cc1F)c1cccnc1Oc1cccc(C(F)(F)F)c1` [compound 28, Diflufenican] was tested. Which Phytotoxicity index ([10]; adzuki bean, true leaf extraction stage, treated 14 days after sowing, 8 days after treatment, 0-100 scale, 4-(tert-butyl)benzoic acid 1000 g ai/ha in Examples, 0 in Comparative Examples, herbicide dose per label) did it give?
Answer: 35

Question: Which Phytotoxicity index [2, 14] does the source give for `CCOC(=O)[C@@H](C)Oc1ccc(Oc2nc3ccc(Cl)cc3o2)cc1` [compound 18, Fenoxaprop-P-ethyl] here?
Answer: 40

Question: How did the Phytotoxicity index [6] turn out when `COC[C@H](C)N(C(=O)CCl)c1c(C)csc1C` [compound 2, Dimethenamide-P] was run?
Answer: 33

Question: Which Phytotoxicity index [11] does the source give for `Cc1ccn2nc(S(=O)(=O)Nc3c(F)cccc3F)nc2n1` [compound 4, Flumetsulam] here?
Answer: 13

Question: With `Cn1nc(C(F)(F)F)c(CS(=O)(=O)C2=NOC(C)(C)C2)c1OC(F)F` [compound 30] as the molecule, how does the Phytotoxicity index ([7]; in vivo) read?
Answer: 40

Question: How did the Phytotoxicity index [12] turn out when `CC(C)C1(C)N=C(c2nc3ccccc3cc2C(=O)O)NC1=O` (stereo not shown) [compound 8, Imazaquin ammonium salt] was run?
Answer: 45

Question: With `Cn1nc(C(F)(F)F)c(CS(=O)(=O)C2=NOC(C)(C)C2)c1OC(F)F` [compound 11] as the molecule, how does the Phytotoxicity index ([5]; in vivo) read?
Answer: 20

Question: Which Phytotoxicity index [13] does the source give for `COc1cc(OC)nc(Oc2cccc(Oc3nc(OC)cc(OC)n3)c2C(=O)O)n1` [compound 24, Bispyribac-sodium] here?
Answer: 18

Question: How did the Phytotoxicity index [9] turn out when `COc1cc(OC)nc(Oc2cccc(Oc3nc(OC)cc(OC)n3)c2C(=O)O)n1` [compound 14, Bispyribac-sodium] was run?
Answer: 45

Question: `O=C(Nc1ccc(F)cc1F)c1cccnc1Oc1cccc(C(F)(F)F)c1` [compound 26, Diflufenican] was tested. Which Phytotoxicity index [3] did it give?
Answer: 30

Question: Which Phytotoxicity index ([10]; in vivo) does the source give for `Cn1nc(C(F)(F)F)c(CS(=O)(=O)C2=NOC(C)(C)C2)c1OC(F)F` [compound 27] here?
Answer: 25

Question: How did the Phytotoxicity index [9] turn out when `COC[C@H](C)N(C(=O)CCl)c1c(C)csc1C` [compound 15, Dimethenamide-P] was run?
Answer: 20

Question: For `O=C(Nc1ccc(F)cc1F)c1cccnc1Oc1cccc(C(F)(F)F)c1` [compound 17, Diflufenican], which Phytotoxicity index [9] is on record?
Answer: 35
